Marks after values point to notes of the source that are not given here.
Assays:
wild possums = test: Palatability of treated baits at possum-specific bait stations; format: in vivo, Trichosurus vulpecula
Source text: (§1) To determine the palatability of baits to wild possums and wild rats, possum-specific bait stations and rat-specific bait stations were established in bush-pasture margin and forest habitats (see FIG. 1 and FIG. 2).
The possum-specific bait station (FIG. 1) is mounted on an elevated wire stake 4 with bait 2 attached in a perforated bag 1 at top of wire 4. A plastic disc 3 is used to stop rodents (not shown) climbing wire 4 has plasticine (not shown) on it to record animal activity.
(§2) The bait stations (FIGS. 1 and 2) enable determination of the response of possums or rats to bait 2. Plasticine 5 is used to record the presence (e.g. footprints, claw marks, bite marks) and species of animal present at the bait station.
(§3) In this example the repellence of neem (a known repellent), lime (a known repellent), anthraquinone and d-pulegone (compounds of the present invention) in cereal, carrot and paste baits are tested on wild possums and rats.
(§4) The following bait treatments are compared: • standard (solution of dye+water+0.1% cinnamon oil) • cinnamamide (solution of dye+water+0.5% cinnamamide) • neem (solution of dye+water+2% neem oil) • lime (solution of dye+water+2% agricultural lime) • anthraquinone (solution of dye+water+0.75% anthraquinone formulation). • d-pulegone (solution of dye+water+1% d-pulegone) • salt (solution of dye+water+salt (10% of total bait weight))
(§5) Treatments are applied to the cereal and carrot bait surface at a rate of 10% of total bait weight. The treatments are applied to the paste bait by mixing the solution through the bait, again at a rate of 10% of total bait weight.
(§6) The treatments are placed on the bait stations as described above and possum and rat activity measured.
(§7) The following bait treatments were compared (only carrot baits are compared): • standard (solution of dye+water+0.1% cinnamon oil) • anthraquinone 1 (solution of dye+water+1% anthraquinone formulation) • anthraquinone 2 (solution of dye+water+2% anthraquinone formulation) • d-pulegone 1 (solution of dye+water+1% d-pulegone) • d-pulegone 2 (solution of dye+water+2% d-pulegone) • combination 1 (solution of dye+water+1% anthraquinone formulation+1% d-pulegone) • combination 2 (solution of dye+water+2% anthraquinone formulation+2% d-pulegone) • salt (solution of dye+water+salt (10% of total bait weight))
(§8) All quantities given in percent by weight and all bait treatment, bait station set-up and subsequent measurement are as described in Example 1.

wild rats = test: Palatability of treated baits at rat-specific bait stations; format: in vivo, Rattus spp.
Procedure: as §1
The rat-specific bait station (FIG. 2) is an approximately 60 mm diameter tube 6 with bait 2 placed in the centre and tube 6 is pinned to ground with holding stake 4. Plasticine 5 is added at either end of the tube 6 to record animal activity.
as §2, §3, §4, §5, §6, §7, §8

brushtail possums = conditions: Day et al, 2000; cited from earlier work
wild sparrows = test: Sparrow feed table dose response and combination test on treated wheat (Example 7); format: in vivo; conditions: FIGS. 6-8; result in words
Source text: Wild sparrow tests were used to determine the effect of the individual repellency compared with the combination repellency.
On sparrow feed tables, sparrows were offered a choice between control wheat and three doses of repellent treated wheat.

several bird species = conditions: 1% w/w concentration; including European starlings and northern bobwhites; cited from earlier work
rats = conditions: Day et al, 2000; cited from earlier work
house sparrows = test: Sparrow treated wheat choice test, 4-day periods (Example 8, Experiment 1); format: in vivo, Passer domesticus; conditions: mean daily percentage of wheat eaten over 4-day test periods; choice with plain wheat
Procedure: The feeding behavior of free-ranging house sparrows (Passer domesticus) presented wheat treated with anthraquinone paired with either a novel visual cue (blue dye), cinnamon oil (containing primarily olfactory cues), or d-pulegone (containing olfactory and taste cues), was recorded, to determine the suitability of repellent combinations for preventing non-target birds from consuming pesticides or other harmful substances.
Eight independent populations of house sparrows, were trained to eat plain hulled wheat from four identical food trays on feed tables.
In Experiment 1, sparrows were presented, for 4-day periods, with a choice between plain wheat, anthraquinone treated wheat, and two of the remaining repellent combinations (anthraquinone and cinnamon oil, anthraquinone and blue dye, anthraquinone and d-pulegone (at 0.5% wt or 2.0% wt concentrations)) until all sparrow populations had been exposed to each repellent.
The consumption of plain wheat and anthraquinone treated wheat was compared to the consumption of the repellent combinations every 24 hr.

[1] = Example 1, by bait treatment (cereal, carrot, paste baits), first exposure
[2] = Example 1, by bait treatment, first exposure
[3] = Example 1, by bait treatment, subsequent exposures
[4] = Example 2, carrot baits, first exposure
[5] = Example 2, carrot baits, subsequent exposures

Compound	Proportion of bait stations left untouched (wild possums; [1])	Proportion of bait stations with bait eaten when encountered (wild possums; [2])	Proportion of bait stations left untouched (wild possums; [3])	Proportion of bait stations with bait eaten when encountered (wild possums; [3])	Proportion of bait stations eaten when encountered (wild rats; [2])	Proportion of bait stations left untouched (wild rats; [2])	Proportion of bait stations eaten when encountered (wild rats; [3])	Proportion of bait stations left untouched (wild rats; [3])	Acceptance of treated baits by possums (brushtail possums)	Amount of wheat eaten by sparrows relative to control wheat or single repellents (wild sparrows)	Acceptance of treated baits by rats / wild rodents (rats)	other results
Salt	0.37	0.30	0.29	0.38	0.00	0.86	0.16	0.72	–	–	–	Proportion of bait stations eaten when encountered (wild possums; [4]): 1.00; Proportion of bait stations left untouched (wild possums; [4]): 0.82; Proportion of bait stations eaten when encountered (wild possums; [5]): 0.43*; Proportion of bait stations left untouched (wild possums; [5]): 0.30*; Proportion of bait stations eaten when encountered (wild rats; [4]): 0.22; Proportion of bait stations left untouched (wild rats; [4]): 0.18; Proportion of bait stations eaten when encountered (wild rats; [5]): 0.33*; Proportion of bait stations left untouched (wild rats; [5]): 0.50
CC(C)=C1CC[C@@H](C)CC1=O [d-pulegone, d-Pulegone]	0.52	0.87	0.30	0.98	0.70	0.63	0.75	0.55	readily take carrot baits	reduced the quantity of wheat eaten by sparrows on days 1, 3 and 4	readily take carrot baits	Repellence of birds (several bird species): repel several bird species
NC(=O)C=Cc1ccccc1 [Cinnamamide, cinnamamide]	0.55	0.71	0.29	0.95	0.67	0.77	0.70	0.66	–	–	–	–
O=C1c2ccccc2C(=O)c2ccccc21 [Anthraquinone]	0.67	0.80	0.35	1.00	1.00	0.64	0.65	0.57	readily eaten by possums	reduced the amount of wheat eaten by sparrows on days 3 and 4	readily take anthraquinone treated baits from bait stations	Wheat consumption, percentage of that offered (house sparrows): 54%

From patent publication US20050186237A1, “Bird repellent” (priority 2002, published 2005)
